SMILES strings stand for the structures. “And” between values parts separate entries of the source, which are not always exact repeats. Identical values can stand only once. Toxic doses and inconclusive results are not listed.

20 molecules from PubChem BioAssay AID330 (DTP/NCI, 2004) can be followed below.

The assay deals with P388 leukemia ip, CD2F1 mice, survival T/C. The assay can be described thus: NCI In Vivo Anticancer Drug Screen. Data for tumor model P388 Leukemia (intraperitoneal) in CD2F1 (CDF1) mice. The following applies: endpoint: median survival time, higher = longer survival. In outline:
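Mice carrying the transplanted tumor received test compound or vehicle. Survival was recorded in each group, and the value is the treated-group measurement divided by that of the vehicle-treated control group.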

Setting [1] is: dose: 100.0 mg/kg/injection, schedule: Q01DX009 (ip), vehicle: saline with Tween-80.
Where [2] appears, read: dose: 200.0 mg/kg/injection, schedule: Q01DX009 (ip), vehicle: saline with Tween-80.
[3] abbreviates: dose: 100.0 mg/kg/injection, schedule: Q01DX009 (ip), vehicle: saline.
[4] abbreviates: dose: 50.0 mg/kg/injection, schedule: Q01DX009 (ip), vehicle: saline.
Where [5] appears, read: dose: 50.0 mg/kg/injection, schedule: Q01DX005 (ip), vehicle: saline with Tween-80.
Setting [6] is: dose: 100.0 mg/kg/injection, schedule: Q01DX005 (ip), vehicle: saline with Tween-80.
[7] abbreviates: dose: 200.0 mg/kg/injection, schedule: Q01DX005 (ip), vehicle: saline with Tween-80.
Where [8] appears, read: dose: 2.5 mg/kg/injection, schedule: Q01DX009 (ip), vehicle: saline.

As for `O=C(O)CCCC(=O)c1ccc2ccccc2c1`, the T/C is 98 % of control (dose: 50.0 mg/kg/injection, schedule: Q01DX009 (ip), vehicle: saline with Tween-80); 98 % of control under setting [1]; 99 % of control under setting [2].
On to `O=S1(=O)OC(c2ccc(O)c(O)c2)(c2ccc(O)c(O)c2)c2ccccc21`, for which, under setting [3], the T/C was 100 % of control and 98 % of control.
Regarding `CSc1cccc(N=C(N)N)c1`, the T/C under setting [4] was 100 % of control and the T/C under setting [3] is 98 % of control.
In the case of `CC1C(=O)C(C)C(c2ccccc2)N(C)C1c1ccccc1` (configuration not stated), the T/C was 96 % of control under setting [5]; 101 % of control (dose: 60.0 mg/kg/injection, schedule: Q01DX005 (ip), vehicle: saline with Tween-80); 106 % of control under setting [6]; 96 % of control (dose: 120.0 mg/kg/injection, schedule: Q01DX005 (ip), vehicle: saline with Tween-80); 98 % of control under setting [7]; 106 % of control (dose: 240.0 mg/kg/injection, schedule: Q01DX005 (ip), vehicle: saline with Tween-80).
As to `O=C(/C=C/c1c2ccccc2cc2ccccc12)c1ccc(C(=O)/C=C/c2c3ccccc3cc3ccccc23)cc1`, the T/C was 105 % of control (dose: 12.5 mg/kg/injection, schedule: Q01DX009 (ip), vehicle: saline with Tween-80) and 90 % of control (dose: 25.0 mg/kg/injection, schedule: Q01DX009 (ip), vehicle: saline with Tween-80).
Regarding `Cc1cnc(NCCCNc2ncc(C)c(-c3ccccc3O)n2)nc1-c1ccccc1O`, the T/C (dose: 50.0 mg/kg/injection, schedule: Q01DX005 (ip), vehicle: Klucel (hydroxypropylcellulose) (HPC)) is 88 % of control; the T/C (dose: 100.0 mg/kg/injection, schedule: Q01DX005 (ip), vehicle: Klucel (hydroxypropylcellulose) (HPC)) was 86 % of control; the T/C (dose: 200.0 mg/kg/injection, schedule: Q01DX005 (ip), vehicle: Klucel (hydroxypropylcellulose) (HPC)) is 92 % of control.
As for `CC(C)(C)OC(=O)NC(CCCN=C(N)N)C(=O)O` (configuration not stated), the T/C reads like this: (dose: 50.0 mg/kg/injection, schedule: Q01DX005 (ip), vehicle: saline) 100 % of control; (dose: 100.0 mg/kg/injection, schedule: Q01DX005 (ip), vehicle: saline) 94 % of control; (dose: 200.0 mg/kg/injection, schedule: Q01DX005 (ip), vehicle: saline) 100 % of control.
With `CN(C)/C(=N\N=C(/c1ccc(Cl)cc1)N(C)C)c1ccc(Cl)cc1`, the T/C reads like this: (dose: 100.0 mg/kg/injection, schedule: Q04DX003 (ip), vehicle: saline with Tween-80) 97 % of control; (dose: 200.0 mg/kg/injection, schedule: Q04DX003 (ip), vehicle: saline with Tween-80) 105 % of control; (dose: 400.0 mg/kg/injection, schedule: Q04DX003 (ip), vehicle: saline with Tween-80) 105 % of control.
Turning to `CCC(C)OC(=S)SSC(=S)OC(C)CC` (configuration not stated), the T/C reads like this: (dose: 25.0 mg/kg/injection, schedule: Q01DX009 (ip), vehicle: suspension in saline) 105 % of control; (dose: 50.0 mg/kg/injection, schedule: Q01DX009 (ip), vehicle: suspension in saline) 96 % of control; (dose: 100.0 mg/kg/injection, schedule: Q01DX009 (ip), vehicle: suspension in saline) 98 % of control; (dose: 200.0 mg/kg/injection, schedule: Q01DX009 (ip), vehicle: suspension in saline) 109 % of control.
Regarding `O=C(/C(=C\c1ccccc1[N+](=O)[O-])S(=O)(=O)c1ccccc1)c1ccc([N+](=O)[O-])cc1`, the T/C by setting is: under setting [5], 98 % of control; under setting [6], 103 % of control; under setting [7], 95 % of control.
Regarding `CCN(CC)CCSC(=O)C(O)(c1ccccc1)c1ccccc1`, the T/C is 108 % of control under setting [8]; 117 % of control (dose: 5.0 mg/kg/injection, schedule: Q01DX009 (ip), vehicle: saline); 101 % of control (dose: 10.0 mg/kg/injection, schedule: Q01DX009 (ip), vehicle: saline); 100 % of control (dose: 12.5 mg/kg/injection, schedule: Q01DX009 (ip), vehicle: saline); 90 % of control (dose: 20.0 mg/kg/injection, schedule: Q01DX009 (ip), vehicle: saline); 98 % of control (dose: 25.0 mg/kg/injection, schedule: Q01DX009 (ip), vehicle: saline). Besides, the T/C (dose: 40.0 mg/kg/injection, schedule: Q01DX009 (ip), vehicle: saline) is 101 % of control; the T/C under setting [4] is 101 % of control (2×) and 107 % of control.
As for `COC1NC(=O)NC(=O)C1=[N+]=[N-]` (configuration not stated), the T/C by setting is: under setting [8], 168 % of control; (dose: 5.0 mg/kg/injection, schedule: Q01DX009 (ip), vehicle: saline sonified) 163 % of control; (dose: 5.0 mg/kg/injection, schedule: Q01DX009 (ip), vehicle: saline with Tween-80) 154 % of control; (dose: 7.5 mg/kg/injection, schedule: Q01DX009 (ip), vehicle: saline with Tween-80) 191 % of control; (dose: 10.0 mg/kg/injection, schedule: Q01DX009 (ip), vehicle: saline sonified) 159 % of control; (dose: 75.0 micrograms/kg/injection, schedule: Q01DX009 (ip), vehicle: saline) 109 % of control. The T/C (dose: 150.0 micrograms/kg/injection, schedule: Q01DX009 (ip), vehicle: saline) is 113 % of control.
On to `NC(=O)NC(=O)CCl`, for which the T/C is, setting by setting: (dose: 25.0 mg/kg/injection, schedule: Q01DX009 (ip), vehicle: Klucel (hydroxypropylcellulose) (HPC)) 105 % of control and 94 % of control; (dose: 50.0 mg/kg/injection, schedule: Q01DX009 (ip), vehicle: Klucel (hydroxypropylcellulose) (HPC)) 103 % of control and 122 % of control and 94 % of control.
`O=C(O)CCCCc1ccc(CCCCC(=O)O)cc1`: the T/C reads like this: (dose: 18.75 mg/kg/injection, schedule: Q04DX003 (ip), vehicle: Klucel (hydroxypropylcellulose) (HPC)) 106 % of control; (dose: 37.5 mg/kg/injection, schedule: Q04DX003 (ip), vehicle: Klucel (hydroxypropylcellulose) (HPC)) 111 % of control; (dose: 75.0 mg/kg/injection, schedule: Q04DX003 (ip), vehicle: Klucel (hydroxypropylcellulose) (HPC)) 113 % of control.
As for `CCOC(=O)C(Br)c1cccc(OC)c1` (configuration not stated), the T/C under setting [1] is 91 % of control; the T/C under setting [2] is 95 % of control; the T/C (dose: 400.0 mg/kg/injection, schedule: Q01DX009 (ip), vehicle: saline with Tween-80) is 95 % of control.
With `C[n+]1c(-c2ccccc2)c2ccccn2c1Sc1n2ccccc2c(-c2ccccc2)[n+]1C`, the T/C was 100 % of control (dose: 1.56 mg/kg/injection, schedule: Q01DX009 (ip), vehicle: Klucel (hydroxypropylcellulose) (HPC)); 102 % of control (dose: 3.12 mg/kg/injection, schedule: Q01DX009 (ip), vehicle: Klucel (hydroxypropylcellulose) (HPC)); 90 % of control and 97 % of control (dose: 6.25 mg/kg/injection, schedule: Q01DX009 (ip), vehicle: Klucel (hydroxypropylcellulose) (HPC)).
For `CC(=O)NC(=O)NC(C)=O`, the T/C is 100 % of control (dose: 100.0 mg/kg/injection, schedule: Q01DX001 (ip), vehicle: methylcellulose (MC)); 108 % of control (dose: 200.0 mg/kg/injection, schedule: Q01DX001 (ip), vehicle: methylcellulose (MC)); 100 % of control (dose: 400.0 mg/kg/injection, schedule: Q01DX001 (ip), vehicle: methylcellulose (MC)).
Take `CC[C@@H]1O[C@@H]([C@@H]2CC[C@](O)([C@]3(C)CC[C@@H]([C@@H](C)[C@@]4(O)CC[C@H](C)[C@@H](C[C@@]5(O)O[C@@H]([C@@H](C)[C@H](O)C[C@H]6CC[C@H](C)[C@@H]([C@@H](C)C(=O)O)O6)CC[C@@H]5C)O4)O3)O2)CC[C@@]1(C)O`: the T/C is 109 % of control (dose: 0.12 mg/kg/injection, schedule: Q01DX009 (ip), vehicle: saline with Tween-80) and 111 % of control (dose: 0.25 mg/kg/injection, schedule: Q01DX009 (ip), vehicle: saline with Tween-80).
On to `CC1=C(C(=O)Nc2ccccc2)C(c2ccc(Cl)cc2Cl)C(C(=O)Nc2ccccc2)=C(C)N1`, for which the T/C was 99 % of control (dose: 100.0 mg/kg/injection, schedule: Q04DX002 (ip), vehicle: saline with Tween-80); 101 % of control (dose: 200.0 mg/kg/injection, schedule: Q04DX002 (ip), vehicle: saline with Tween-80); 92 % of control (dose: 400.0 mg/kg/injection, schedule: Q04DX002 (ip), vehicle: saline with Tween-80).
With `C=C(C#N)N(C)c1ccccc1`, the T/C reads like this: (dose: 3.12 mg/kg/injection, schedule: Q01DX005 (ip), vehicle: Klucel (hydroxypropylcellulose) (HPC)) 94 % of control; (dose: 6.25 mg/kg/injection, schedule: Q01DX005 (ip), vehicle: Klucel (hydroxypropylcellulose) (HPC)) 111 % of control; (dose: 12.5 mg/kg/injection, schedule: Q01DX005 (ip), vehicle: Klucel (hydroxypropylcellulose) (HPC)) 94 % of control.
